{"source": "paper PMC8372822", "about": "“A Concise Synthetic Strategy Towards the Novel Calcium-dependent Lipopeptide Antibiotic, Malacidin A and Analogues” (Frontiers in Chemistry, 2021)", "key": {"[1]": {"test_system": "Staphylococcus aureus ATCC 6538", "test": "microbe, parasite or virus in culture", "format": "cell-based", "conditions": "for MIC: S. aureus ATCC 6538, CAMHB, in presence of 50 mg L^-1 of CaCl2, 37 °C, 18 to 24 h, biological triplicate, maximum concentration 128 µg mL^-1", "experimental": "Antimicrobial susceptibility testing was performed in biological triplicate by determining the minimum inhibitory concentrations (MIC) of the six malacidin analogues and the control antibiotics, penicillin G and daptomycin. Malacidin analogues 31, 36, 39, and 40 were prepared as 10 mg mL^-1 stock solutions in filter sterilised MilliQ water. Compounds 37, and 38 were prepared as 5 mg mL^-1 stock solutions in filter sterilised MilliQ water. Malacidin analogues were tested at a maximum concentration of 128 µg mL^-1. Bacterial inoculums of Staphylococcus aureus ATCC 6538 were prepared by diluting an overnight culture to a final optical density 600 nm (OD600) of 0.003 in cation adjusted Mueller Hinton broth (CAMH) to yield 5 × 10^5 CFU mL^-1 (final) in all assays. MIC assays were performed in 96-well microtiter plates in a total volume of 100 µL, and compounds were serially diluted across the plate in 2-fold dilutions. The MIC was reported as the lowest concentration of the test compound for which no growth occurred after incubation at 37 °C for 18 to 24 h. For all MIC testing CAMHB was supplemented with calcium (50 mg L^-1 final) as per the CLSI guidelines for daptomycin^17\nTable S3. MIC values of simplified analogues 31, 36-40 in presence of 50 mg L^-1 of CaCl2.^aTesting was additionally performed in the absence of CaCl2 and no activity for any of the malacidin analogues was observed against S. aureus."}, "[2]": {"test_system": "Staphylococcus aureus (ATCC 29213)", "format": "cell-based", "experimental": "MIC assays were performed in accordance with the CLSI recommended protocol^17 with minor adjustments. Briefly, Staphylococcus aureus (ATCC 29213) was grown at 37 °C with shaking (200 rpm) in Mueller Hinton (MH) broth supplemented with either 1.5 mM (near the concentration commonly employed for daptomycin testing [1.25 mM]) or 15 mM CaCl2 (in accordance with the reported testing of malacidin by Hover et al.^1) from an autoclaved stock solution of CaCl2. The respective Ca^2+ adjusted media was used for all further compound and culture dilutions. A two-fold dilution series of the test compounds was prepared in triplicate in polypropylene 96-well plates. Cultures of bacteria grown for 8 h were diluted accordingly in fresh media before adding 50 µL of inoculum to each well of the MIC plate, to achieve a final volume of 100 µL with a uniform CFU/ml of ~5 x10^5 in each well. A growth control (untreated) and sterility control (non-inoculated) well were included for each test compound replicate. Plates were incubated at 37 °C with shaking for 18 h before determining the MIC by visual inspection. MIC values were determined as the lowest concentration at which no growth was observed consistently across all three biological replicates of the assay and within triplicates of each test compound.\nTable S2. MIC values of diastereomer 1a at different CaCl2 concentrations."}, "[3]": {"test": "Ca2+ binding capability by 1H NMR in the presence of CaCl2", "conditions": "1a 5.6 mM in D2O, CaCl2 at 1.5 mM and 15 mM, 500 MHz, 298 K", "experimental": "Despite these differences, it was observed that the lipid sp^2 proton signals closely matched that of the natural product and no peaks arising from cis-trans isomerization were observed, indicating the tolerance of acid-sensitive lipid 25 to the optimized TFA side chain deprotection conditions and HPLC purification protocols.\n[picture] Figure S16. Overlay of ^1H NMR spectra of synthetic 1a (5.6 mM) recorded at 500 MHz, 298 K in D2O spiked with Et3N (1.88 mM) and CaCl2 of varying concentrations: 0 mM CaCl2 (bottom), 1.5 mM CaCl2 (middle), 15 mM CaCl2 (top)."}, "[4]": {"test_system": "methicillin-resistant Staphylococcus aureus (MRSA), MRSA USA300", "conditions": "ref Hover et al., 2018, cited from earlier work", "description": "In 2018, Brady et al. reported the isolation of malacidin A (1) as part of an extensive metagenomic mining study of bacterial DNA obtained from soil samples in search of novel bioactive natural products ([Owen et al., 2013]; [Hover et al., 2018]). […] Malacidin ... || FIGURE 1 Structure of malacidin A (1); non-canonical amino acids and the lipid tail are highlighted in purple; the undefined stereochemistry of β-carbon centers is indicated with an asterisk; the calcium-binding region residues are specified in red; the macrolactam bond is highlighted with blue shading. The stereochemistry and MIC values of the isolated malacidin A (1) ([Hover et al., 2018]) and synthesized diastereomers [this work 1a, the Li group 1b–1e ([Sun et al., 2020])] are shown above; X in 1 represents undefined stereochemistry. TEXT PRINTED IN THE PICTURE: Malacidin A (1): MIC (μg mL^ ..."}, "[5]": {"conditions": "cited from earlier work", "description": "(§1) In 2018, Brady et al. reported the isolation of malacidin A (1) as part of an extensive metagenomic mining study of bacterial DNA obtained from soil samples in search of novel bioactive natural products ([Owen et al., 2013]; [Hover et al., 2018]). […] Malacidin ..."}, "[6]": {"test_system": "S. aureus", "conditions": "after repeated exposure to S. aureus; ref Hover et al., 2018; cited from earlier work", "description": "as §1"}, "[7]": {"test_system": "vancomycin-resistant Enterococcus faecium (VRE)", "conditions": "ref Hover et al., 2018; cited from earlier work", "description": "as §1"}, "[8]": {"conditions": "ref Hover et al., 2018; cited from earlier work", "description": "Evaluation of the antibacterial activity of the synthesized analogues 1a, 31 and 36–40 was then undertaken."}}, "note": "Read-outs that look alike come from different tables or passages of the source. Positions of bridges follow the written chain, without caps; N, C: chain ends. Non-standard residues stand in square brackets, D forms with d. Residues, ends and D or L forms follow the SMILES beside them. *: point of attachment. Benzoyl(4-Ph) = O=C(c1ccc(-c2ccccc2)cc1)*; Decanoyl = CCCCCCCCCC(=O)*; Dap = NC[C@H](N)C(=O)O"}
{"compound": "CC1(C)S[C@@H]2[C@H](NC(=O)Cc3ccccc3)C(=O)N2[C@H]1C(=O)O", "note": "[Penicillin G, penicillin G]", "values": [{"measurement": "MIC", "setting": "[1]; Staphylococcus aureus, ATCC6538, read-out: MIC", "value": 0.0312, "unit": "µg/mL"}]}
{"compound": "CC(C)CC/C=C\\C=C\\C(=O)N[C@H](C(=O)N[C@@H]1C(=O)N[C@H](C(C)C)C(=O)N[C@@H](CCCCN)C(=O)N[C@@H]([C@H](O)C(=O)O)C(=O)N[C@@H](CC(=O)O)C(=O)NCC(=O)N[C@H]([C@@H](C)C(=O)O)C(=O)N[C@@H](C(C)C)C(=O)N2C[C@H](C)C[C@H]2C(=O)N[C@H]1C)[C@H](C)C(=O)O", "note": "[1a]", "values": [{"measurement": "activity toward S. aureus", "setting": "[2]; 15 mM CaCl2 (Supplementary Table S2)", "value": "no activity"}, {"measurement": "MIC", "setting": "[2]; S.aureus strain: ATCC 29213, Figure 1, this work", "value": "> 64", "unit": "µg/mL"}, {"measurement": "activity toward S. aureus", "setting": "[2]; media supplemented with 1.25–1.5 mM CaCl2 (Supplementary Table S2)", "value": "no activity"}, {"measurement": "interaction with Ca^2+ ions (signal shifts or line broadening in 1H NMR)", "setting": "[3]", "value": "fails to interact with Ca^2+ ions"}]}
{"compound": "CC(C)[C@@H]1NC(=O)[C@@H](CC(=O)O)NC(=O)CNC(=O)[C@H](CC(=O)O)NC(=O)[C@H](CC(=O)O)NC(=O)[C@H](CCCCN)NC(=O)[C@@H](C(C)C)NC(=O)[C@@H](NC(=O)[C@H](CC(=O)O)NC(=O)c2ccc(-c3ccccc3)cc2)CNC(=O)[C@@H]2CCCN2C1=O", "note": "[compound 40] ({Benzoyl(4-Ph)}-D[Dap][dV]KDDG[dD]VP; lactam 2-C)", "values": [{"measurement": "MIC", "setting": "[1]", "value": ">128 >128 µg/mL"}]}
{"compound": "malacidin A", "values": [{"measurement": "MIC", "setting": "[4]; MRSA", "value": "0.2 to 0.8", "unit": "µg/mL"}, {"measurement": "MIC", "setting": "[4]; S.aureus strain: MRSA USA300, Figure 1", "value": "0.2 to 0.8", "unit": "µg/mL"}, {"measurement": "cytotoxicity", "setting": "[5]", "value": "non-cytotoxic"}, {"measurement": "molecular target bound", "setting": "[5]; preliminary mechanistic studies, ref Hover et al., 2018", "value": "binding to lipid II"}, {"measurement": "induction of resistance", "setting": "[6]", "value": "did not induce resistance"}, {"measurement": "MIC", "setting": "[7]", "value": "0.8 to 2.0", "unit": "µg/mL"}, {"measurement": "CaCl2 concentration of maximum activity", "setting": "[8]", "value": 15, "unit": "mM"}]}
{"compound": "CCCCCCCCCC(=O)N[C@@H](CC(=O)O)C(=O)N[C@H]1CNC(=O)[C@@H]2CCCN2C(=O)[C@H](C(C)C)NC(=O)[C@@H](CC(=O)O)NC(=O)CNC(=O)[C@H](CC(=O)O)NC(=O)[C@H](CC(=O)O)NC(=O)[C@H](CCCCN)NC(=O)[C@@H](C(C)C)NC1=O", "note": "[compound 31] (Decanoyl-D[Dap][dV]KDDG[dD]VP; lactam 2-C)", "values": [{"measurement": "activity toward S. aureus", "setting": "[1]; media supplemented with 1.25–1.5 mM CaCl2 (Supplementary Table S3)", "value": "no activity"}]}
